Assay results as given in patent US20060293259A1, “Compositions and methods of use of derivatized flavanols” (Mars, Incorporated, priority 2005, published 2006).

Tests used:
[1] = system: platelets in whole blood; assay: Collagen-induced platelet aggregation in whole blood (platelet counting); type: cell-based, human; details: aspirin 100 μM; for inhibition of collagen-induced platelet aggregation: first experiment (FIG. 1), collagen 0.125, 0.25, 0.5 μg/ml, 4 and 10 min, test flavanols 0.3 mM, mean of n=9; for inhibition of collagen induced aggregation: second experiment (FIG. 2), collagen 0.125-0.5 μg/ml, 4 min, flavanols 0.3 mM, n=9
Procedure: (§1) Platelet aggregation was measured using a platelet counting technique, and formation of platelet/monocyte conjugates (P/M) and platelet/neutrophil conjugates (P/N) by flow cytometry. In later experiments the activation state of platelets associated with leukocytes (CD62P) was also measured and also the activation state of the leukocytes themselves (CD11b).
Blood samples were studied using the Multi-Sample Agitator (MSA) produced by the Medical Engineering Unit (University of Nottingham). The MSA is used to maintain blood samples at 37° C. and to agitate small samples of blood at a stir speed of 1,000 rpm as required.
(§2) Blood was obtained from healthy volunteers, who denied taking any aspirin or non-steroidal anti-inflammatory drugs (NSAID) in the previous 10 days. This blood was dispensed into graduated polystyrene tubes that contained hirudin (final concentration 50 μg/ml) and a small volume of the flavanol under investigation or ethanol as control. The final concentration of ethanol in the blood was always 0.3%. In some experiments, aspirin (ASA) or saline as control was also included in the tube. The tubes were then capped and inverted three times to ensure adequate mixing then placed in the MSA at 37° C. for 30 min before the experiments were performed, during which time the blood was left undisturbed. A further sample of blood was taken into a commercially prepared vacutainer tube that contained K2EDTA as anticoagulant.
Following a 30 min pre-incubation period, aliquots of blood (480 μl) were dispensed into small polystyrene tubes each containing a stir bar and stirred for 2 min in the MSA. After 2 min a solution (20 μl) of agonist or vehicle control were added to the tubes. These were then stirred in the MSA for up to 10 min at which time the platelet aggregates were fixed by mixing a small sub sample with fixative solution in a 1:2 ratio (v/v). The platelet count in the fixed samples was determined using the UltraFlo-100 Whole Blood Platelet Counter. Platelet aggregation was calculated as the percentage loss of single platelets with reference to the platelet count of the EDTA sample.
(§3) Blood was obtained from three different volunteers and the platelet aggregation and platelet/leukocyte conjugate formation was measured in response to collagen (0, 0.125, 0.25 and 0.5 μg/ml). In this experiment the highest collagen concentration used previously (1 μg/ml) was replaced with a lower concentration of collagen (0.125 μg/ml) to optimise the inhibition brought about by the different flavanols. In these experiments (+) catechin (Sigma) was used at 1 mM, aspirin (100 μM) and the test flavanols at 0.3 mM with the exception of EP−(0.1 mM) and 4 mCAT (0.05 mM). Aggregation was measured at 4 and 10 min following agonist addition and platelet/leukocyte conjugate formation only at 10 min.
The absolute response of the blood from the different volunteers to collagen varied. This meant that the relative inhibitory effects of a flavanol was dependent on the volunteer's responsiveness to the particular collagen concentration used. For this reason it was decided that an appropriate means of analysing the results, for comparative purposes, would be to calculate the mean values for each flavanol irrespective of the collagen concentration used. (Because, for each of the three blood samples three concentrations of collagen were used, the results are each the means (±sem) of nine individual values).
Blood was obtained from three different volunteers and the platelet aggregation (4 min) and platelet/leukocyte conjugate formation (10 min) was measured in response to collagen (0, 0.125, 0.25 and 0.5 μg/ml). At the same time the activation of platelets and leukocytes in the conjugates were measured by incubation with CD62P and CD11b antibodies. In these experiments aspirin was used at a concentration of 100 μM and derivatized flavanols and procyanidins at 0.3 mM with the exception of EP-(0.1 mM) and 4mCAT (0.05 mM). […]

[2] = system: platelet/monocyte conjugates; assay: Platelet/monocyte conjugate (P/M) formation in whole blood by flow cytometry; type: cell-based, human; details: collagen 0.125-0.5 μg/ml, 10 min, aspirin 100 μM; for inhibition of platelet/monocyte conjugation (P/M): first experiment (FIG. 1), test flavanols 0.3 mM; for inhibition of P/M: second experiment (FIG. 2), flavanols 0.3 mM
Procedure: as §1
(§4) Flow cytometry was carried out using commercially available fluorescent labelled antibodies on a Facscan (Becton Dickinson, UK) equipped with a 5 W laser operating at 15 mW power and a wavelength of 488 nm or an LSRII flow cytometer (Becton Dickinson, UK) equipped with an additional red Trigon laser operating at a wavelength of 633 nm.
as §2
(§5) Platelet-leukocyte conjugate formation was measured in the same stirred samples used to measure platelet aggregation. Sub samples were taken 4 min or 10 min following the addition of agonist and transferred into the appropriate antibody or antibody mixture. These were then incubated in the dark at room temperature for not less than 20 min. Following red cell lysis and a washing procedure the cell suspensions were applied to either the FACScan or the LSRII flow cytometer. Leukocytes were identified by logical gating from dot plots of forward scatter (cell size) and side scatter (cell granularity) profiles acquired with linear amplification. Monocytes were identified by their forward scatter-side scatter profile and CD14 (PE) positivity, while neutrophils were identified in the same way but were negative for CD14 expression. The “pan” leukocyte marker, CD45 (PerCP) was also used to identify the leukocyte population. Fluorescence parameters were acquired with logarithmic amplification. Platelet monocyte (P/M) and platelet neutrophil (P/N) conjugates were quantified as median CD42a (FITC) fluorescence of the monocyte (P/M mf) or neutrophil population (P/N mf). Leukocyte activation was measured by CD11b (AlexaFluor647) expression (CD11b-M for monocytes and CD11b-N for neutrophils). Platelet activation (P-selectin expression) was measured by CD62P (PE) positivity of the platelets associated with leukocytes as (CD62P-M on P/M and CD62P-N on P/N).
The FACScan was used to measure the fluorescent probes in experiments where three colors were used together, but the LSRII was needed in order to study four colors. The LSRII is a more sensitive machine and produces higher fluorescence values (mf) than the FACScan. […]
Blood was obtained from three different volunteers and the platelet aggregation and platelet/leukocyte conjugate formation was measured in response to collagen (0, 0.125, 0.25 and 0.5 μg/ml). […]

[3] = system: platelet/neutrophil conjugates; assay: Platelet/neutrophil conjugate (P/N) formation in whole blood by flow cytometry; type: cell-based, human; details: collagen 0.125-0.5 μg/ml, 10 min, aspirin 100 μM; for inhibition of platelet/neutrophil conjugate formation (P/N): first experiment (FIG. 1), test flavanols 0.3 mM; for inhibition of P/N: second experiment (FIG. 2), flavanols 0.3 mM
Procedure: as §1, §4, §2, §5
The FACScan was used to measure the fluorescent probes in experiments where three colors were used together, but the LSRII was needed in order to study four colors. The LSRII is a more sensitive machine and produces higher fluorescence values (mf) than the FACScan. Results obtained on the FACScan cannot be directly compared with the results obtained on the LSRII.
as §3, with “Aggregation was measured at 4 and 10 min following agonist addition and platelet/leukocyte conjugate formation only at 10 min.” left out

[4] = system: CD62P on platelets associated with monocytes and neutrophils; assay: Platelet activation (CD62P, P-selectin) on platelets associated with leukocytes; type: cell-based, human; details: FIG. 2; collagen 0.125-0.5 μg/ml; 10 min; flavanols 0.3 mM, aspirin 100 μM
Procedure: as §1, §4
Blood was obtained from healthy volunteers, who denied taking any aspirin or non-steroidal anti-inflammatory drugs (NSAID) in the previous 10 days. This blood was dispensed into graduated polystyrene tubes that contained hirudin (final concentration 50 μg/ml) and a small volume of the flavanol under investigation or ethanol as control. […]
(§6) Platelet-leukocyte conjugate formation was measured in the same stirred samples used to measure platelet aggregation. […] Fluorescence parameters were acquired with logarithmic amplification. Platelet monocyte (P/M) and platelet neutrophil (P/N) conjugates were quantified as median CD42a (FITC) fluorescence of the monocyte (P/M mf) or neutrophil population (P/N mf). Leukocyte activation was measured by CD11b (AlexaFluor647) expression (CD11b-M for monocytes and CD11b-N for neutrophils). Platelet activation (P-selectin expression) was measured by CD62P (PE) positivity of the platelets associated with leukocytes as (CD62P-M on P/M and CD62P-N on P/N).
From this point on it was decided to include measures of the extent of the activation of both platelets and leukocytes in the conjugates that formed following addition of collagen to blood. P-selectin (CD62P) was measured on the platelets associated with leukocytes in the conjugates that formed. Leukocyte activation was measured as the amount of CD11b that was expressed. […]

[5] = system: CD11b on monocytes and neutrophils; assay: Leukocyte activation (CD11b expression) on monocytes and neutrophils; type: cell-based, human; details: FIG. 2; collagen 0.125-0.5 μg/ml; 10 min; flavanols 0.3 mM, aspirin 100 μM
Procedure: as §1
as §4, with “nm. […]” for “nm.”
as §6, with “P/N). […]” for “P/N).”

[6] = system: human umbilical vein endothelial cell (HUVEC); assay: NO production (NOx in culture medium) by HUVEC; type: cell-based; details: for effect on NO production, chronic effect test: 5 subsequent doses, each for 24 hours; for effect on NO production, acute effect test: single dose, 2 and 24 hours, 100 nM, and 10 μM
Procedure: Alkylated compounds, obtained as described in Example 1, were investigated for their effect on nitric oxide (NO) production and vasorelaxation using serum-free human umbilical vein endothelial cell (HUVEC) culture system in vitro. NO production by endothelial cells and relaxation of pre-constricted aortic rings are two main markers for evaluating cardiovascular effects of test compounds.
HUVECs obtained from a single donor were cultured in serum free, low protein (0.5 g/l), antibiotic-free cell culture medium supplemented with essential growth factors, nutrients and minerals. […] The cell culture medium was substituted with apo-transferrin, superoxide dismutase, and catalase to exclude secondary effects of test compounds involving their auto-oxidation mediated hydrogen peroxide formation.
(§7) Test compounds were evaluated with respect to their potential to acutely (2 hours) and chronically (5 doses given in a 24 h period) modulate NO production. Positive controls (acetylcholine and/or histamine) and negative control L-NNMA (NO synthase inhibitor) were included in all experiments. Cell counts and total protein were used to assess intra-assay variation. Potential toxic effects of tested compounds were also monitored (MTT reduction was measured).
NO production was evaluated by measuring the total amount of all major nitric oxide end products (NOx, including nitrate, nitrite, nitrosothiols) present in the cell culture medium. […] The amount of NO released from the culture medium was subsequently evaluated by measuring the chemiluminescence emitted during the stoichiometrical reaction between ozone and NO using NO Analyzer (Sievers Instruments, Inc. Boulder, Colo.).
The data presented herein were obtained from three experiments and were expressed as the concentration of NO present (in μmol/l) (as NOx) in the cell culture medium+/−standard deviation (SD). The data were corrected for the NOx intrinsically present in the fully supplemented cell culture medium and normalized with respect to the volume of media from which the sample was drawn. Data were analyzed using Student's t-test with a 95% level of confidence. P values equal to or less than […] were defined as statistically significant.
(§8) For the acute effect test, HUVECs were incubated with a single dose of 4′-O-ethyl (−) epicatechin, 4′-O-methyl (−) catechin, 3′-O-methyl (−) catechin which may be prepared as described in Ex. 1 using (−) catechin as a starting material, for 2 and 24 hours at concentrations of 100 nM, […], and 10 μM at 37 C and 5% CO2.
For the chronic effect test, HUVECs were incubated with 5 subsequent doses of test compounds, each for 24 hours. After each 24 hour treatment, culture medium was replaced.

[7] = system: human umbilical vein endothelial cell (HUVEC); assay: MTT assay for toxic effects in HUVEC; type: cell-based; details: acute effect test, 100 nM, and 10 μM
Procedure: as §7, §8

| Compound | inhibition of collagen-induced platelet aggregation [1] | inhibition of collagen induced aggregation [1] | inhibition of platelet/monocyte conjugation (P/M) [2] | inhibition of P/M [2] | inhibition of platelet/neutrophil conjugate formation (P/N) [3] | inhibition of P/N [3] | inhibition of platelet activation (CD62P) on monocytes and neutrophils [4] | inhibition of leukocyte activation (CD11b on monocytes and neutrophils) [5] | effect on NO production, chronic effect test [6] | effect on NO production, acute effect test [6] | toxic effects (MTT assay) [7] | effect on NO production, chronic effect test ([6]; 10 μM concentration, p=0.004) |
| --- | --- | --- | --- | --- | --- | --- | --- | --- | --- | --- | --- | --- |
| COc1ccc(C2Oc3cc(O)cc(O)c3CC2O)cc1O (stereo not shown) [4mEPCAT, 4′OMe epicatechin] | significant effect | among the most effective | significant effect | significant effect | among the most effective | most effective | best inhibited | among the most effective | – | – | – | – |
| CC(=O)Oc1ccccc1C(=O)O [ASA, acetyl salicylic acid, reference compound] | effectively inhibited | expected effects | effectively inhibited | – | effectively inhibited | expected effects | expected effects | no effect | – | – | – | – |
| 3′-O-methyl (−) catechin | – | – | – | – | – | – | – | – | no statistically significant effect | no statistically significant effect | did not have toxic effects | – |
| COc1cc(C2Oc3cc(O)cc(O)c3CC2O)ccc1O (stereo not shown) [3mCAT, 3′OMe catechin] | significant effect | among the most effective | significant effect | significant effect | among the most effective | most effective | best inhibited | – | – | – | – | – |
| COc1ccc([C@H]2Oc3cc(O)cc(O)c3C[C@@H]2O)cc1O [4′-O-methyl (−) catechin] | – | – | – | – | – | – | – | – | no statistically significant effect | no statistically significant effect | did not have toxic effects | – |
| CCOc1ccc([C@H]2Oc3cc(O)cc(O)c3C[C@H]2O)cc1O [4′-O-ethyl (−) epicatechin] | – | – | – | – | – | – | – | – | – | no statistically significant effect | did not have toxic effects | statistically significant increase |
